From article PMC6957260 (European journal of medicinal chemistry, 2013)

Legend:
rat TRPV1 [1] = biological target: T1, rat TRPV1 (Rattus norvegicus, UniProt O35433); conditions: cited from earlier work
rat TRPV1 [2] = biological target: T1, rat TRPV1; assay: functional 45Ca2+ uptake assay, agonism, rat TRPV1 in CHO cells; type: cell-based; conditions: for fold less potency for agonism compared to the parent compound: rat TRPV1, parents 2 and 3, respectively
human TRPV1 = human TRPV1 (Homo sapiens, UniProt Q8NER1); type: cell-based
hTRPV1 = hTRPV1 in HEK-293 cells, cited from earlier work; for EC50: read-out: agonism EC50
rat TRPV1 [3] = biological target: T1, rat TRPV1; type: cell-based
rat TRPV1 [4] = biological target: T1, rat TRPV1; assay: competitive binding assay with [3H]RTX, rat TRPV1 in CHO cells; conditions: parents 2 and 3, respectively

T1 sequence (O35433 whole entry): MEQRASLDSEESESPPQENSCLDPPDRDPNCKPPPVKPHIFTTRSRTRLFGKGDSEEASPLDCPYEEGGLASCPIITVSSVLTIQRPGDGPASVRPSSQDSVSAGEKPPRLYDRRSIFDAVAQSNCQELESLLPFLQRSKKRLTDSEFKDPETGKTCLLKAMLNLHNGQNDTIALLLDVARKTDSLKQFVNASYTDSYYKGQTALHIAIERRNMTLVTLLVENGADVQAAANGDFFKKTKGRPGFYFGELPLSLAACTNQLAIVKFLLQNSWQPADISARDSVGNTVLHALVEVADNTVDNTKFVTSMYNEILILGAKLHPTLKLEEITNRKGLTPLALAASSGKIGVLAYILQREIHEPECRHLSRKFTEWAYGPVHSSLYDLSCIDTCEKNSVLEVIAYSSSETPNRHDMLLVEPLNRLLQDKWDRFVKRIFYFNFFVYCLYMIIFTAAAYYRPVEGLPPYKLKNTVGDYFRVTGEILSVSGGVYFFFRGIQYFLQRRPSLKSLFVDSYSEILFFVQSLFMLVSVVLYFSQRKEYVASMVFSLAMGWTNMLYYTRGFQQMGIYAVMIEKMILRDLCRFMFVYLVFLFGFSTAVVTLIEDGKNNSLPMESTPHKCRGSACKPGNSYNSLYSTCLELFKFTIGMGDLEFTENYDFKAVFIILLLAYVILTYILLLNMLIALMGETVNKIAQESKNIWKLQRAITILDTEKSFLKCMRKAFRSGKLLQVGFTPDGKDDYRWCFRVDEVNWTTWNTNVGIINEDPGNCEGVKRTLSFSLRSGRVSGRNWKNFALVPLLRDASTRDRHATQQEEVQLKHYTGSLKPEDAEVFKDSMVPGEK
human TRPV1, sequence (Q8NER1 whole entry): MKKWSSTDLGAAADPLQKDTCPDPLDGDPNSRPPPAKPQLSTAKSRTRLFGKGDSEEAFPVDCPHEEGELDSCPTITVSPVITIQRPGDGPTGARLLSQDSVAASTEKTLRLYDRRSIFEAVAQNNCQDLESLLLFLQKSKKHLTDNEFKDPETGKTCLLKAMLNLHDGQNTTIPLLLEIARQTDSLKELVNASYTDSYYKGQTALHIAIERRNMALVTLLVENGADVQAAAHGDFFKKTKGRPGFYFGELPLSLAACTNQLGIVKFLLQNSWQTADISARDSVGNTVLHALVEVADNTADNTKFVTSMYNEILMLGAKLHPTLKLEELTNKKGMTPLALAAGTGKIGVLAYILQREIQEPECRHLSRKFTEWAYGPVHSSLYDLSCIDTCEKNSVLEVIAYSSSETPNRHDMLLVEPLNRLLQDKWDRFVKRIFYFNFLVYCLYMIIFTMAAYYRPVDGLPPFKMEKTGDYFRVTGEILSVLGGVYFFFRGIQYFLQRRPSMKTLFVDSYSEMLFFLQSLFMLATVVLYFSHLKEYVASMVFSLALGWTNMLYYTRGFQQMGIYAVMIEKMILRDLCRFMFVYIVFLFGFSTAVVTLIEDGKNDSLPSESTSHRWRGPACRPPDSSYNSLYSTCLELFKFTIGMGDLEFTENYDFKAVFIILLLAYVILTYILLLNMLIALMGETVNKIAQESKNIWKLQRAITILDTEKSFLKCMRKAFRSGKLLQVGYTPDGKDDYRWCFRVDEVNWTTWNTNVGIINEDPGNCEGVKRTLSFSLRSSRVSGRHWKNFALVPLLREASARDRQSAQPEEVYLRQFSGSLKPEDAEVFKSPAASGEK

C=C(C)[C@@]12C[C@@H](C)C34OC(Cc5ccccc5)(OC1[C@@H]3C=C(COC(=O)Cc1cc(Br)c(N)c(OC)c1)C[C@]1(O)C(=O)C(C)=C[C@@H]41)O2 (some centres unmarked) [5-bromo-4-amino RTX]
fold more potent than 5′-iodo RTX (antagonism) (rat TRPV1 [1]): 4.5 fold

C=C(C)[C@]12C[C@@H](C)[C@@]34O[C@](Cc5ccccc5)(O[C@@H]1[C@@H]3C=C(COC(=O)Oc1cc(Cl)c(O)c(OC)c1)C[C@]1(O)C(=O)C(C)=C[C@@H]41)O2 [Compound 58]
mean % of agonism relative to capsaicin (rat TRPV1 [2]): a The mean % of agonism relative to capsaicin: 13% for 58, 89% for 63, 83% for 64. | mean % of agonism relative to capsaicin (human TRPV1): a The mean % of agonism relative to capsaicin: 52% for 58, 90% for 64.

C=C(C)[C@]12C[C@@H](C)[C@@]34O[C@](Cc5ccccc5)(O[C@@H]1[C@@H]3C=C(COC(=O)Cc1ccc(O)c(OC)c1)C[C@]1(O)C(=O)C(C)=C[C@@H]41)O2 [Compound 1, Resiniferatoxin, reference compound]
EC50 (hTRPV1): 0.019 nM

C=C(C)[C@]12C[C@@H](C)[C@@]34O[C@](Cc5ccccc5)(O[C@@H]1[C@@H]3C=C(COC(=O)Oc1cc(I)c(O)c(OC)c1)C[C@]1(O)C(=O)C(C)=C[C@@H]41)O2 [Compound 60]
fold more potent than RTX (agonism) (hTRPV1): ca. 4 fold | EC50 (hTRPV1): 0.0047 nM

C=C(C)[C@]12C[C@@H](C)[C@@]34O[C@](Cc5ccccc5)(O[C@@H]1[C@@H]3C=C(COC(=O)Oc1cc(F)c(N)c(OC)c1)C[C@]1(O)C(=O)C(C)=C[C@@H]41)O2 [Compound 64]
mean % of agonism relative to capsaicin (human TRPV1): a The mean % of agonism relative to capsaicin: 52% for 58, 90% for 64.

C=C(C)[C@]12C[C@@H](C)[C@@]34O[C@](Cc5ccccc5)(O[C@@H]1[C@@H]3C=C(COC(=O)Oc1cc(Br)c(N)c(OC)c1)C[C@]1(O)C(=O)C(C)=C[C@@H]41)O2 [Compound 66]
fold more potent than I-RTX (antagonism) (rat TRPV1 [3]): ca. 5 fold

C=C(C)[C@]12C[C@@H](C)[C@@]34O[C@](Cc5ccccc5)(O[C@@H]1[C@@H]3C=C(COC(=O)Oc1ccc(NS(C)(=O)=O)c(OC)c1)C[C@]1(O)C(=O)C(C)=C[C@@H]41)O2 [Compound 63]
fold less potency in binding affinity compared to the parent compound (rat TRPV1 [4]): 5.5 fold | fold less potency for agonism compared to the parent compound (rat TRPV1 [2]): 40 fold

C=C(C)[C@]12C[C@@H](C)[C@@]34O[C@](Cc5ccccc5)(O[C@@H]1[C@@H]3C=C(COC(=O)Oc1cc(F)c(O)c(OC)c1)C[C@]1(O)C(=O)C(C)=C[C@@H]41)O2 [Compound 57]
fold less potent than RTX (functional activity, agonism) (rat TRPV1 [2]; rTRPV1): ca. 5 fold

C=C(C)[C@]12C[C@@H](C)[C@@]34O[C@](Cc5ccccc5)(O[C@@H]1[C@@H]3C=C(COC(=O)Oc1cc(Cl)c(N)c(OC)c1)C[C@]1(O)C(=O)C(C)=C[C@@H]41)O2 [Compound 65]
fold more potent than I-RTX (antagonism) (rat TRPV1 [3]): ca. 5 fold

C=C(C)[C@]12C[C@@H](C)[C@@]34O[C@](Cc5ccccc5)(O[C@@H]1[C@@H]3C=C(COC(=O)Oc1ccc(N)c(OC)c1)C[C@]1(O)C(=O)C(C)=C[C@@H]41)O2 [Compound 62]
fold less potency in binding affinity compared to the parent compound (rat TRPV1 [4]): 4.5 fold | fold less potency for agonism compared to the parent compound (rat TRPV1 [2]): 4 fold
